Experimental data published in ChEMBL document CHEMBL3751794, “α-Aryl pyrrolidine sulfonamides as TRPA1 antagonists” (Bioorg Med Chem Lett, 2016).
pIC50: −log10 of the molar value.

Key:
[1] = biological target: Transient receptor potential cation channel subfamily A member 1 (Homo sapiens, UniProt O75762); test: Inhibition of human TRPA1
[2] = Lipophilicity, log D of compound at pH 7.4; format: physicochemical; settings: buffer
[3] = biological target: Transient receptor potential cation channel subfamily A member 1 (Rattus norvegicus, UniProt Q6RI86); test: Inhibition of rat TRPA1
Sequence of Transient receptor potential cation channel subfamily A member 1 (Rattus norvegicus, UniProt Q6RI86) (Q6RI86 whole entry): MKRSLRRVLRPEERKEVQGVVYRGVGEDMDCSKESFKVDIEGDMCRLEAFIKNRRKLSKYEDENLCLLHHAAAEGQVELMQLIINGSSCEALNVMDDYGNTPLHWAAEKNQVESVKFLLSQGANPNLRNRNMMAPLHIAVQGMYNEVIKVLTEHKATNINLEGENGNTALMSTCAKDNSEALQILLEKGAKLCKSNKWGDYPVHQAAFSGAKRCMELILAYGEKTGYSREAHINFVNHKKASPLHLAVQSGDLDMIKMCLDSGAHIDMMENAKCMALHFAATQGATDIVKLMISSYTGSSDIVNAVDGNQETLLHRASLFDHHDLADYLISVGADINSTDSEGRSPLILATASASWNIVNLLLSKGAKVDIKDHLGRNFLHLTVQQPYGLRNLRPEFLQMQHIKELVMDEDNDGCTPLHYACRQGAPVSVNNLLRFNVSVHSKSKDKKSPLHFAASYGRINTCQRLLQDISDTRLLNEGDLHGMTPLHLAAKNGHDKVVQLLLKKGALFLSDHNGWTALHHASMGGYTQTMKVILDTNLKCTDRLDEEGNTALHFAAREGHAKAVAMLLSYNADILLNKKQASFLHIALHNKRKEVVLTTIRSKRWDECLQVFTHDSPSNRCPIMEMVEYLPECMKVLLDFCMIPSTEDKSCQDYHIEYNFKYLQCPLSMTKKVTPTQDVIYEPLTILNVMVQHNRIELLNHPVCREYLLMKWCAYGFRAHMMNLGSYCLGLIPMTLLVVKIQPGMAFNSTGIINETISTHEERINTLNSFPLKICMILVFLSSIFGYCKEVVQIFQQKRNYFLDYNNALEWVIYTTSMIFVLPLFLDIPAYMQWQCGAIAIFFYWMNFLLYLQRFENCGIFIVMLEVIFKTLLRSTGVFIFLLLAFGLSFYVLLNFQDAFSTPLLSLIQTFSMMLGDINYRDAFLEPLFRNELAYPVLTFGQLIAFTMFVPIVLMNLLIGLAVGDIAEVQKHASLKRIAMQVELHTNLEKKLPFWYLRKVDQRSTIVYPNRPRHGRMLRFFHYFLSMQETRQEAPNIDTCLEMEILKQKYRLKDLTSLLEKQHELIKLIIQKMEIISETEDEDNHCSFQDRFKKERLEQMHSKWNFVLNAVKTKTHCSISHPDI

[4] = Plasma protein binding in human; format: ADME, cell-free; settings: read-out: PPB (converted)
[5] = Kinetic solubility of compound; format: physicochemical; settings: read-out: Kinetic_solubility
[6] = Permeability across MDCK cells; format: ADME, cell-based, Canis lupus familiaris; settings: dog, read-out: permeability

Sequence of Transient receptor potential cation channel subfamily A member 1 (Homo sapiens, UniProt O75762) (O75762 whole entry): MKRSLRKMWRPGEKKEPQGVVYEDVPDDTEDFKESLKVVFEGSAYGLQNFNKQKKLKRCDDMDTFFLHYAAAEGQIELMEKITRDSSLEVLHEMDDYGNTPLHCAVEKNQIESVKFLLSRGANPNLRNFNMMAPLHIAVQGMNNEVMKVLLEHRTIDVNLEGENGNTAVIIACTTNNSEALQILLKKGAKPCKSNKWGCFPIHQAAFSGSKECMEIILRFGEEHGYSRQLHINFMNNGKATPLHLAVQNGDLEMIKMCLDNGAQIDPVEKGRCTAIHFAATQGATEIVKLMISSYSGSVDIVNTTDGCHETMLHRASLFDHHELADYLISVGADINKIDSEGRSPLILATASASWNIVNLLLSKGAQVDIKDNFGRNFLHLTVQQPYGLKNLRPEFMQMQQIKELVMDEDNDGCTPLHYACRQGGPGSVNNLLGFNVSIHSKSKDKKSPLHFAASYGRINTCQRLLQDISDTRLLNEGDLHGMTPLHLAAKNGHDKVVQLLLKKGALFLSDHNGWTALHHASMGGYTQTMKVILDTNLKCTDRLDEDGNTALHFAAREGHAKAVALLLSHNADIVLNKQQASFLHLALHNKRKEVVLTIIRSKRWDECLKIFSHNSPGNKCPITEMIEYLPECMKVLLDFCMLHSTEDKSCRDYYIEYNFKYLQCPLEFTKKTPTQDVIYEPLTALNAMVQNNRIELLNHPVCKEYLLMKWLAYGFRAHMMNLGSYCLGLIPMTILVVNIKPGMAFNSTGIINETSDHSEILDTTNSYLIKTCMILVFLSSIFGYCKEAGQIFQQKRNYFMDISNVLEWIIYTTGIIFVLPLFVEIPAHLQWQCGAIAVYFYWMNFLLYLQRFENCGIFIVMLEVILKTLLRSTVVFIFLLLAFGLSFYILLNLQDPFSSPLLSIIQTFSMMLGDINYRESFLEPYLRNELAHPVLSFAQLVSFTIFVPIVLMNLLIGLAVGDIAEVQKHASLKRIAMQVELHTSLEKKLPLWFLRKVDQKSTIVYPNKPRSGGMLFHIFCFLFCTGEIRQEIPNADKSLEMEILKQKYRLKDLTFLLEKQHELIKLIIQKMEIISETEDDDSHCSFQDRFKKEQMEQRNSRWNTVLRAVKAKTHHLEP

Row | pIC50 [1] | logD [2] | pIC50 [3] | fraction unbound [4] | solubility kinetic [5] | Papp [6] | SMILES
1 | 6.72 | 2.8 | – | – | – | – | Cc1cc(S(=O)(=O)N2[C@H](CO)CC[C@@H]2c2ccc(F)cc2)ccc1F
2 | 5.17 | 4 | – | – | – | – | Cc1cc(CN2[C@H](CO)CC[C@@H]2c2ccc(F)cc2)cc(C)c1F
3 | 6.57 | 3.9 | – | – | – | – | COC[C@@H]1CC[C@H](c2ccc(F)cc2)N1S(=O)(=O)c1cc(C)c(F)c(C)c1
4 | 6.42 | 2.6 | – | – | – | – | Cc1cc(S(=O)(=O)N2C[C@H](F)C[C@@H]2c2ccc(F)cc2)cc(C)c1F
5 | < 4.70 | 2.7 | – | – | – | – | CNC[C@@H]1CC[C@H](c2ccc(F)cc2)N1S(=O)(=O)c1cc(C)c(F)c(C)c1
6 | < 4.70 | 4.3 | – | – | – | – | Cc1cc(S(=O)(=O)N2[C@H](CNCC(F)(F)F)CC[C@@H]2c2ccc(F)cc2)cc(C)c1F
7 | 6.96 | 3.8 | 5.14 | 0.006 | < 1 µM | 5.7 ×10⁻⁶ cm/s | O=S(=O)(c1cc(Cl)c(F)c(Cl)c1)N1[C@H](CO)CC[C@@H]1c1ccc(F)cc1
8 | < 4.70 | 3.1 | – | – | – | – | Cc1cc(C(=O)N2[C@H](CO)CC[C@@H]2c2ccc(F)cc2)cc(C)c1F
9 | < 4.70 | 1.1 | – | – | – | – | O=S(=O)(c1cccnc1)N1[C@H](CO)CC[C@@H]1c1ccc(F)cc1
10 | 7.20 | 3.3 | – | – | – | – | Cc1cc(S(=O)(=O)N2[C@H](CO)CC[C@@H]2c2ccc(F)cc2)cc(C)c1F
11 | 7.64 | 4.2 | – | – | – | – | Cc1cc(S(=O)(=O)N2CC(F)(F)C[C@@H]2c2ccc(F)cc2)cc(C)c1F
12 | 6.96 | 4.4 | – | – | – | – | Cc1cc(S(=O)(=O)N2CCC[C@@H]2c2ccc(F)cc2)cc(C)c1F
13 | 6.46 | 4.6 | – | – | – | – | O=S(=O)(c1cc(Cl)c(F)c(Cl)c1)N1CCC[C@@H]1c1ccc(F)cc1
14 | 6.89 | 3.6 | – | – | – | – | Cc1cc(S(=O)(=O)N2[C@H](CO)CC[C@@H]2c2ccc(F)cc2)cc(Cl)c1F
15 | < 4.70 | 2 | – | – | – | – | O=S(=O)(c1ccc(F)cn1)N1[C@H](CO)CC[C@@H]1c1ccc(F)cc1
16 | 6.54 | 3.2 | – | – | – | – | Cc1cc(C)cc(S(=O)(=O)N2[C@H](CO)CC[C@@H]2c2ccc(F)cc2)c1
17 | 7.70 | 3.9 | – | – | – | – | Cc1cc(S(=O)(=O)N2CC[C@@H](F)[C@@H]2c2ccc(F)cc2)cc(C)c1F
18 | < 4.74 | 3.7 | – | – | – | – | Cc1cc(S(=O)(=O)N2[C@H](CN(C)C)CC[C@@H]2c2ccc(F)cc2)cc(C)c1F
19 | < 4.72 | 2.2 | – | – | – | – | O=S(=O)(c1ccccc1)N1[C@H](CO)CC[C@@H]1c1ccc(F)cc1
20 | 5.18 | 3.2 | – | – | – | – | O=S(=O)(c1ccc(F)cc1)N1CCC[C@@H]1c1ccc(F)cc1
